The target of data set [1] is T1, hAMY3 receptor (Homo sapiens, UniProt O60896+P30988).
T1 sequence (P30988 25-474): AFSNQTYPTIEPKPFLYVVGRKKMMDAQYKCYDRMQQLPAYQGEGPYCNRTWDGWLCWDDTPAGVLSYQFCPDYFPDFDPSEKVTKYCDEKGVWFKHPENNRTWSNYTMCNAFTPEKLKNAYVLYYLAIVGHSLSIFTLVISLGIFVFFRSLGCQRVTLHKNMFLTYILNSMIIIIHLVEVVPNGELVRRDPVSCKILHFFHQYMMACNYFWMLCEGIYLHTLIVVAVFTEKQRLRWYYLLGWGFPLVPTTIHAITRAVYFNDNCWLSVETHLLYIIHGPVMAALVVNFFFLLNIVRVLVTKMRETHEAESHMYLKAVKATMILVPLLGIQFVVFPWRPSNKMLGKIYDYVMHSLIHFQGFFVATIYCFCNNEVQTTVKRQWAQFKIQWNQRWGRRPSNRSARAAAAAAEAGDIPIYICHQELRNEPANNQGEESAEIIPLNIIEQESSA
T1 sequence (O60896 24-148 partner): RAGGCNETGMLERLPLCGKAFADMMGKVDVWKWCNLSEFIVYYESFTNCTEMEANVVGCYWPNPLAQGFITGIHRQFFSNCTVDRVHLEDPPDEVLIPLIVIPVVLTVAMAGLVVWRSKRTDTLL
As to the kind of experiment: cAMP assay for in vitro receptor activation, hAMY3-R. Format: cell-based. As to conditions: cAMP assay, hAMY3 receptor; read-out: hAMY3R EC50. The method, boiled down: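 Read-out is TR-FRET cAMP signal, recorded one hour after reagent addition, following 30 min room-temperature stimulation of stable hAMY3 cells with graded compound doses in casein/IBMX (0.5 mM) buffer.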

For data set [2], the target named is hAM1 receptor (Homo sapiens, UniProt O60895+Q16602). As to the kind of experiment: cAMP assay for in vitro receptor activation, hAM1-R. As to conditions: cAMP assay, hAM1 receptor; read-out: hAM1R EC50. Format: cell-based. A digest of the protocol:
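Monoclonal stable hAM1-overexpressing cells, thawed from frozen stock; 8000 cells/well in DPBS + 0.05% casein + 0.5 mM IBMX; read-out cAMP.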

Data set [3] in a line: Physical stability of peptide analogues (Thioflavin T fibrillation). Format: physicochemical. Conditions: maximum ThT signal normalized between hAMY maximum and buffer background; 40° C., shaking, four days; pH 7 per table title. The method, boiled down: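 ThT fluorescence (450 nm excitation, 480 nm emission; 4 μM dye) was read every 10 min over four days at 40° C under 700 rpm shaking stress, after 1 h in pH 4 acetate or pH 7 phosphate (50 mM). Peak smoothed signal expressed as percent, scaled between buffer background and hAMY maximum.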

pEC50: −log10 of the molar value. Bridge positions count the residues as written; N and C are the ends. Square brackets hold non-standard residues; d marks the D form. Peptide text beside a SMILES is read from it. Hyp = O=C(O)[C@@H]1C[C@@H](O)CN1; Cit = NC(=O)NCCC[C@H](N)C(=O)O

Chain of hAM1 receptor (Q16602 23-461): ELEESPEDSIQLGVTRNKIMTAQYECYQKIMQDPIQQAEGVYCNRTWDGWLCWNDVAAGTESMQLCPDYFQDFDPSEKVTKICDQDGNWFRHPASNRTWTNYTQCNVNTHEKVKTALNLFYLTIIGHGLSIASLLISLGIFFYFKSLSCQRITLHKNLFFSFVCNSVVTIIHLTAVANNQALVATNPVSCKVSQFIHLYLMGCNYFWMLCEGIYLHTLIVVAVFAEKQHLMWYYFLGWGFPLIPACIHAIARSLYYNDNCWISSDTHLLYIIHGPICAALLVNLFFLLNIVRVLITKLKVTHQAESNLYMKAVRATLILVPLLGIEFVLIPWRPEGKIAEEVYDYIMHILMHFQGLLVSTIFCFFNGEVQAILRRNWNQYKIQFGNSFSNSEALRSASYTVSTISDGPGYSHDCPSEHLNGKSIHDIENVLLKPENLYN
Chain of hAM1 receptor (O60895 43-175 partner): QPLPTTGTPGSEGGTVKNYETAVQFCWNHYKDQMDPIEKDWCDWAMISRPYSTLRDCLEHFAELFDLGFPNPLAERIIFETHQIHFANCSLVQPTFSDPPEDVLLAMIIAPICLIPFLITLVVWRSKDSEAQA

On to `CC[C@H](C)[C@H](NC(=O)[C@H](CCC(N)=O)NC(=O)[C@H](CCC(=O)O)NC(=O)[C@H](C)NC(=O)[C@H](CC(C)C)NC(=O)[C@H](CCCNC(N)=O)NC(=O)[C@H](C)NC(=O)[C@@H](NC(=O)[C@@H](NC(=O)[C@@H]1CSSC[C@H](NC(=O)[C@@H](N)CCCNC(=N)N)C(=O)N[C@@H](CCC(N)=O)C(=O)N[C@@H]([C@@H](C)O)C(=O)N[C@@H](CO)C(=O)N[C@@H]([C@@H](C)O)C(=O)N1)[C@@H](C)O)C(C)C)C(=O)N[C@@H](C)C(=O)N[C@@H](CCC(N)=O)C(=O)N[C@@H](Cc1ccc(O)cc1)C(=O)N[C@H](C(=O)N[C@@H](CC(=O)O)C(=O)N[C@@H](CCCCN)C(=O)N[C@@H](CC(=O)O)C(=O)N[C@@H](CCCCN)C(=O)N[C@@H](CC(=O)O)C(=O)N[C@@H](CCC(N)=O)C(=O)N[C@H](C(=O)N[C@@H](C)C(=O)N1CCC[C@H]1C(=O)N1CCC[C@H]1C(=O)N[C@H](C(=O)N[C@@H](CC(N)=O)C(=O)N[C@H](C(=O)NCC(=O)N[C@@H](CO)C(=O)N[C@@H](CC(N)=O)C(=O)N[C@@H](CO)C(=O)N1C[C@H](O)C[C@H]1C(N)=O)C(C)C)[C@@H](C)O)C(C)C)[C@@H](C)O` [compound 256] (H-RCQTSTCTVA[Cit]LAEQIAQYTDKDKDQVAPPTNVGSNS[Hyp]-NH2; disulfide 2-7; N-terminus assumed), for which the pEC50 in data set [1] is 11.15; in data set [2], below 5.30. Besides, the “Max ThT signal (%)” value in data set [3] came to 18.650%.

`CC[C@H](C)[C@H](NC(=O)[C@H](CCC(N)=O)NC(=O)[C@H](Cc1c[nH]cn1)NC(=O)[C@H](C)NC(=O)[C@H](CC(C)C)NC(=O)[C@H](CCCNC(N)=O)NC(=O)[C@H](CCC(N)=O)NC(=O)[C@@H](NC(=O)[C@@H](NC(=O)[C@@H]1CSSC[C@H](NC(=O)CN)C(=O)N[C@@H](CCCNC(=N)N)C(=O)N[C@@H](Cc2ccccc2)C(=O)NCC(=O)N[C@@H]([C@@H](C)O)C(=O)N1)[C@@H](C)O)C(C)C)C(=O)N[C@@H](Cc1ccc(O)cc1)C(=O)N[C@@H](CCC(N)=O)C(=O)N[C@@H](Cc1ccccc1)C(=O)N[C@H](C(=O)N[C@@H](CC(=O)O)C(=O)N[C@@H](CCCCN)C(=O)N[C@@H](CC(=O)O)C(=O)N[C@@H](CCCCN)C(=O)N[C@@H](CC(=O)O)C(=O)N[C@@H](CC(N)=O)C(=O)N[C@H](C(=O)N[C@@H](C)C(=O)N1CCC[C@H]1C(=O)N[C@@H](CCCNC(=N)N)C(=O)N[C@@H](CO)C(=O)N[C@@H](CC(N)=O)C(=O)N[C@H](C(=O)N[C@@H](CO)C(=O)N1CCC[C@H]1C(=O)N[C@@H](CCC(N)=O)C(=O)NCC(=O)N1C[C@H](O)C[C@H]1C(N)=O)C(C)C)C(C)C)[C@@H](C)O` [compound 293] (H-GCRFGTCTVQ[Cit]LAHQIYQFTDKDKDNVAPRSNVSPQG[Hyp]-NH2; disulfide 2-7; N-terminus assumed): the pEC50 in data set [1] is 10.20; in data set [2], below 5.30. Besides, the “Max ThT signal (%)” value in data set [3] was 24.200%.

Regarding `CC[C@H](C)[C@H](NC(=O)[C@H](CCCCN)NC(=O)[C@@H](NC(=O)[C@H](CCCNC(=N)N)NC(=O)[C@@H]1CCCN1C(=O)[C@H](C)NC(=O)[C@@H](NC(=O)[C@H](CC(N)=O)NC(=O)[C@H](CC(=O)O)NC(=O)[C@H](CCCCN)NC(=O)[C@H](CC(=O)O)NC(=O)[C@H](CCCCN)NC(=O)[C@H](CC(=O)O)NC(=O)[C@@H](NC(=O)[C@H](Cc1ccccc1)NC(=O)[C@H](CCC(N)=O)NC(=O)[C@H](Cc1ccc(O)cc1)NC(=O)[C@@H](NC(=O)[C@H](CCC(N)=O)NC(=O)[C@H](Cc1c[nH]cn1)NC(=O)[C@H](C)NC(=O)[C@H](CC(C)C)NC(=O)[C@H](Cc1c[nH]c2ccccc12)NC(=O)[C@H](CCC(N)=O)NC(=O)[C@@H](NC(=O)[C@@H](NC(=O)[C@@H]1CSSC[C@H](NC(=O)CN)C(=O)N[C@@H](CCCNC(=N)N)C(=O)N[C@@H]([C@@H](C)O)C(=O)NCC(=O)N[C@@H]([C@@H](C)O)C(=O)N1)[C@@H](C)O)C(C)C)[C@@H](C)CC)[C@@H](C)O)C(C)C)[C@@H](C)O)C(=O)NCC(=O)N1CCC[C@H]1C(=O)N[C@@H](CC(N)=O)C(=O)NCC(=O)N1C[C@H](O)C[C@H]1C(N)=O` [compound 339] (H-GCRTGTCTVQWLAHQIYQFTDKDKDNVAPRTKIGPNG[Hyp]-NH2; disulfide 2-7; N-terminus assumed), the pEC50 in data set [1] is 10.33; in data set [2] it was below 5.30. In data set [3], the “Max ThT signal (%)” value was found to be 20.050%.

As to `CC[C@H](C)[C@H](NC(=O)[C@H](CCC(N)=O)NC(=O)[C@H](Cc1c[nH]cn1)NC(=O)[C@H](C)NC(=O)[C@H](CC(C)C)NC(=O)[C@H](CCCNC(=N)N)NC(=O)[C@H](CCC(N)=O)NC(=O)[C@@H](NC(=O)[C@@H](NC(=O)[C@@H]1CSSC[C@H](NC(=O)CN)C(=O)N[C@@H](CCCNC(=N)N)C(=O)N[C@@H](Cc2ccccc2)C(=O)NCC(=O)N[C@@H]([C@@H](C)O)C(=O)N1)[C@@H](C)O)C(C)C)C(=O)N[C@@H](Cc1ccc(O)cc1)C(=O)N[C@@H](CCC(N)=O)C(=O)N[C@@H](Cc1ccccc1)C(=O)N[C@H](C(=O)N[C@@H](CC(=O)O)C(=O)N[C@@H](CCCCN)C(=O)N[C@@H](Cc1ccccc1)C(=O)N[C@@H](CCCCN)C(=O)N[C@@H](CC(=O)O)C(=O)N[C@@H](CC(N)=O)C(=O)N[C@H](C(=O)N[C@@H](C)C(=O)N1CCC[C@H]1C(=O)N[C@@H](CCCNC(=N)N)C(=O)N[C@@H](CO)C(=O)N[C@@H](CCCCN)C(=O)N[C@H](C(=O)N[C@@H](CO)C(=O)N1CCC[C@H]1C(=O)N[C@@H](CCC(N)=O)C(=O)N[C@H](C(=O)N1C[C@H](O)C[C@H]1C(N)=O)[C@@H](C)O)[C@@H](C)CC)C(C)C)[C@@H](C)O` [compound 212] (H-GCRFGTCTVQRLAHQIYQFTDKFKDNVAPRSKISPQT[Hyp]-NH2; disulfide 2-7; N-terminus assumed), the results for the pEC50 in data set [1] and in data set [2] were 9.82 and below 5.30, respectively. Moreover, the “Max ThT signal (%)” value in data set [3] turned out to be 1.900%.

As for `CC[C@H](C)[C@H](NC(=O)[C@H](CCC(N)=O)NC(=O)[C@H](Cc1c[nH]cn1)NC(=O)[C@H](C)NC(=O)[C@H](CC(C)C)NC(=O)[C@H](CCCNC(=N)N)NC(=O)[C@H](CCC(N)=O)NC(=O)[C@@H](NC(=O)[C@@H](NC(=O)[C@@H]1CSSC[C@H](NC(=O)CN)C(=O)N[C@@H](CCCNC(=N)N)C(=O)N[C@@H]([C@@H](C)O)C(=O)NCC(=O)N[C@@H]([C@@H](C)O)C(=O)N1)[C@@H](C)O)C(C)C)C(=O)N[C@@H](Cc1c[nH]c2ccccc12)C(=O)N[C@@H](CCC(N)=O)C(=O)N[C@@H](Cc1ccccc1)C(=O)N[C@H](C(=O)N[C@@H](CC(=O)O)C(=O)N[C@@H](CCCCN)C(=O)N[C@@H](Cc1ccccc1)C(=O)N[C@@H](CCCCN)C(=O)N[C@@H](CC(=O)O)C(=O)N[C@@H](CC(N)=O)C(=O)N[C@H](C(=O)N[C@@H](C)C(=O)N1CCC[C@H]1C(=O)N[C@@H](CCCNC(=N)N)C(=O)N[C@@H](CO)C(=O)N[C@@H](CCCCN)C(=O)N[C@H](C(=O)N[C@@H](CO)C(=O)N1CCC[C@H]1C(=O)N[C@@H](CCC(N)=O)C(=O)N[C@H](C(=O)N1C[C@H](O)C[C@H]1C(N)=O)[C@@H](C)O)[C@@H](C)CC)C(C)C)[C@@H](C)O` [compound 213] (H-GCRTGTCTVQRLAHQIWQFTDKFKDNVAPRSKISPQT[Hyp]-NH2; disulfide 2-7), the pEC50 in data set [1] was 9.82; in data set [2], below 5.30. Also, the “Max ThT signal (%)” value in data set [3] was determined as 6.500%.

With `CC[C@H](C)[C@H](NC(=O)[C@H](CCC(N)=O)NC(=O)[C@H](Cc1c[nH]cn1)NC(=O)[C@H](C)NC(=O)[C@H](CC(C)C)NC(=O)[C@H](CCCNC(N)=O)NC(=O)[C@H](CCC(N)=O)NC(=O)[C@@H](NC(=O)[C@@H](NC(=O)[C@@H]1CSSC[C@H](NC(=O)[C@@H](N)CCCCN)C(=O)N[C@@H](CC(N)=O)C(=O)N[C@@H]([C@@H](C)O)C(=O)N[C@@H](C)C(=O)N[C@@H]([C@@H](C)O)C(=O)N1)[C@@H](C)O)C(C)C)C(=O)N[C@@H](C)C(=O)N[C@@H](CCC(N)=O)C(=O)N[C@@H](Cc1ccccc1)C(=O)N[C@H](C(=O)N[C@@H](CC(=O)O)C(=O)N[C@@H](CCCCN)C(=O)N[C@@H](CC(=O)O)C(=O)N[C@@H](CCCCN)C(=O)N[C@@H](CC(=O)O)C(=O)N[C@@H](CC(N)=O)C(=O)N[C@H](C(=O)N[C@@H](C)C(=O)N1CCC[C@H]1C(=O)N1CCC[C@H]1C(=O)N[C@H](C(=O)N[C@@H](CC(N)=O)C(=O)N[C@H](C(=O)NCC(=O)N[C@@H](CO)C(=O)N[C@@H](CC(N)=O)C(=O)NCC(=O)N1C[C@H](O)C[C@H]1C(N)=O)C(C)C)[C@@H](C)O)C(C)C)[C@@H](C)O` [compound 246] (H-KCNTATCTVQ[Cit]LAHQIAQFTDKDKDNVAPPTNVGSNG[Hyp]-NH2; disulfide 2-7), the pEC50 in data set [1] is 11.00; in data set [2] it was below 5.30. For the same molecule, in data set [3], the “Max ThT signal (%)” value worked out at 4.200%.

The values above are taken from patent US12139520B2 (priority 2020, dated 2024).
